Values quoted from earlier work as cited in PubChem BioAssay AID1259409 (Chemical Carcinogenesis Research Information System (CCRIS), 2018).

Tested on: rodent chemically induced tumor inhibition, incidence and multiplicity
Assay: CCRIS tumor inhibitor studies

O=C1O[C@H]([C@@H](O)CO)C(O)=C1O
tumour outcome (control, treated, inhibition, significance) (Carcinogen: DIETHYLNITROSAMINE, 55-18-5, Dose [Inhibitor]: 0, 15 G/L IN DRINKING WATER FOR DURATION OF STUDY BEGINNING 1 D PRIOR TO FIRST CARCINOGEN DOSE (STUDY DURATION: 6 MO), Route [Inhibitor]: ORAL, Species: RAT, Strain/Sex: BD6/FEMALE, Target Tissue: Type of Lesion: ESOPHAGUS: TUMOR, Dose [Carcinogen]: 80 MG/KG BW 1/WK FOR 10 WK, Promoter: NONE USED): 35%, 24%, 31%, not significant
tumour outcome (control, treated, inhibition, significance) (Carcinogen: DIETHYLNITROSAMINE, 55-18-5, Dose [Inhibitor]: 0, 15 G/L IN DRINKING WATER FOR DURATION OF STUDY BEGINNING 1 D PRIOR TO FIRST CARCINOGEN DOSE (STUDY DURATION: 6 MO), Route [Inhibitor]: ORAL, Species: RAT, Strain/Sex: BD6/FEMALE, Target Tissue: Type of Lesion: LIVER: TUMOR, Dose [Carcinogen]: 80 MG/KG BW 1/WK FOR 10 WK, Promoter: NONE USED): 100%, 92%, 8%, not significant
tumour outcome (control, treated, inhibition, significance) (Carcinogen: DIETHYLNITROSAMINE, 55-18-5, Dose [Inhibitor]: 0, 15 G/L IN DRINKING WATER FOR DURATION OF STUDY BEGINNING 2 D POST CARCINOGEN TREATMENT (STUDY DURATION: 6 MO), Route [Inhibitor]: ORAL, Species: RAT, Strain/Sex: BD6/FEMALE, Target Tissue: Type of Lesion: ESOPHAGUS: TUMOR, Dose [Carcinogen]: 80 MG/KG BW 1/WK FOR 10 WK, Promoter: NONE USED): 35%, 28%, 20%, not significant
tumour outcome (control, treated, inhibition, significance) (Carcinogen: DIETHYLNITROSAMINE, 55-18-5, Dose [Inhibitor]: 0, 15 G/L IN DRINKING WATER FOR DURATION OF STUDY BEGINNING 2 D POST CARCINOGEN TREATMENT (STUDY DURATION: 6 MO), Route [Inhibitor]: ORAL, Species: RAT, Strain/Sex: BD6/FEMALE, Target Tissue: Type of Lesion: LIVER: TUMOR, Dose [Carcinogen]: 80 MG/KG BW 1/WK FOR 10 WK, Promoter: NONE USED): 100%, 100%, 0%, not significant
tumour outcome (control, treated, inhibition, significance) (Carcinogen: DIETHYLSTILBESTROL, 56-53-1, Dose [Inhibitor]: 1 G/KG OR 2.5 G/KG OF DIET BEGINNING 2 D PRIOR TO FIRST CARCINOGEN IMPLANT AND CONTINUING FOR DURATION OF STUDY (STUDY D, Route [Inhibitor]: ORAL, Species: HAMSTER, Strain/Sex: SYRIAN/MALE, Target Tissue: Type of Lesion: KIDNEY: CARCINOMA, Dose [Carcinogen]: 90% OF 40 MG PELLET (OTHER 10% CHOLESTEROL) 2 D AFTER START OF AGENT TREATMENT AND AGAIN 3 MO LATER, Promoter: NONE USED): 11/13 (85%), 14/29 (48%), 44%, p<0.05
tumour outcome (control, treated, inhibition, significance) (Carcinogen: DIETHYNITROSAMINE, 55-18-5, Dose [Inhibitor]: 0, 3 G/L IN DRINKING WATER FOR DURATION OF STUDY BEGINNING 2 D POST CARCINOGEN TREATMENT (STUDY DURATION: 6 MO), Route [Inhibitor]: ORAL, Species: RAT, Strain/Sex: BD6/FEMALE, Target Tissue: Type of Lesion: LIVER: TUMOR, Dose [Carcinogen]: 80 MG/KG BW 1/WK FOR 10 WK, Promoter: NONE USED): 100%, 100%, 0%, not significant
tumour outcome (control, treated, inhibition, significance) (Carcinogen: ETHYLUREA, 625-52-5, SODIUM NITRITE, 7632-00-0, Carcinogen: ETHYLUREA, 625-52-5, SODIUM NITRITE, 7632-00-0, Dose [Inhibitor]: 200 MG/KG BW ADMINISTERED INTRAGASTRICALLY ONCE ON D 15 OF GESTATION SIMULTANEOUSLY WITH CARCINOGEN TREATMENT (STUDY DUR, Route [Inhibitor]: TRANSPLACENTAL, Species: HAMSTER, Strain/Sex: SYRIAN/FEMALE, Target Tissue: Type of Lesion: PERIPHERAL NERVOUS SYSTEM: NEOPLASM, Dose [Carcinogen]: 200 MG ETHYLUREA/KG BW AND 100 MG SODIUM NITRITE/KG BW IG ONCE, Promoter: NONE USED): 9/18 (50%), 0/18 (0%), 100%, not calculated
tumour outcome (control, treated, inhibition, significance) (Carcinogen: ETHYLUREA, 625-52-5, SODIUM NITRITE, 7632-00-0, Carcinogen: ETHYLUREA, 625-52-5, SODIUM NITRITE, 7632-00-0, Dose [Inhibitor]: 200 MG/KG BW ADMINISTERED INTRAGASTRICALLY ONCE ON D 15 OF GESTATION SIMULTANEOUSLY WITH CARCINOGEN TREATMENT (STUDY DUR, Route [Inhibitor]: TRANSPLACENTAL, Species: HAMSTER, Strain/Sex: SYRIAN/MALE, Target Tissue: Type of Lesion: PERIPHERAL NERVOUS SYSTEM: NEOPLASM, Dose [Carcinogen]: 200 MG ETHYLUREA/KG BW AND 100 MG SODIUM NITRITE/KG BW IG ONCE, Promoter: NONE USED): 6/18 (33%), 0/24 (0%), 100%, not calculated
tumour outcome (control, treated, inhibition, significance) (Carcinogen: FIBERGLASS DUST, Dose [Inhibitor]: 400 MG/KG BW 1/3 D FOR 10 TREATMENTS STARTING 3 D POST CARCINOGEN TREATMENT (STUDY DURATION: 90 D), Route [Inhibitor]: INTRAPERITONEAL, Species: MOUSE, Strain/Sex: STRAIN-A/MALE, Target Tissue: Type of Lesion: LUNG: TUMOR, Dose [Carcinogen]: 300 MG IN 100 G OF STERILIZED PINE SAWDUST BEDDING FOR 30 D, Promoter: NONE USED): 6/12 (50%), 1/12 (8%), 84%, not calculated
tumour outcome (control, treated, inhibition, significance) (Carcinogen: N,N-DIETHYLNITROSAMINE, 55-18-5, Dose [Inhibitor]: 4.5 MG/100 KG DIET FOR 58 WK STARTING SIMULTANEOUSLY WITH CARCINOGEN AND PROMOTER TREATMENT AND CONTINUING FOR DURATION, Route [Inhibitor]: ORAL, Species: HAMSTER, Strain/Sex: SYRIAN/MALE, Target Tissue: Type of Lesion: LARYNX: TUMORS, Dose [Carcinogen]: 10 MG (TOTAL DOSE) IN 0.9% SALINE 1/WK FOR 12 WK, Promoter: CIGARETTE SMOKE): 20/30 (67%), 17/30 (57%), 15%, not significant
tumour outcome (control, treated, inhibition, significance) (Carcinogen: N,N-DIETHYLNITROSAMINE, 55-18-5, Dose [Inhibitor]: 4.5 MG/100 KG DIET FOR 58 WK STARTING SIMULTANEOUSLY WITH CARCINOGEN AND PROMOTER TREATMENT AND CONTINUING FOR DURATION, Route [Inhibitor]: ORAL, Species: HAMSTER, Strain/Sex: SYRIAN/MALE, Target Tissue: Type of Lesion: NASAL CAVITY: TUMORS, Dose [Carcinogen]: 10 MG (TOTAL DOSE) IN 0.9% SALINE 1/WK FOR 12 WK, Promoter: CIGARETTE SMOKE): 14/29 (48%), 8/30 (27%), 44%, not significant
tumour outcome (control, treated, inhibition, significance) (Carcinogen: N,N-DIETHYLNITROSAMINE, 55-18-5, Dose [Inhibitor]: 4.5 MG/100 KG DIET FOR 58 WK STARTING SIMULTANEOUSLY WITH CARCINOGEN AND PROMOTER TREATMENT AND CONTINUING FOR DURATION, Route [Inhibitor]: ORAL, Species: HAMSTER, Strain/Sex: SYRIAN/MALE, Target Tissue: Type of Lesion: TRACHEA: TUMORS, Dose [Carcinogen]: 10 MG (TOTAL DOSE) IN 0.9% SALINE 1/WK FOR 12 WK, Promoter: CIGARETTE SMOKE): 30/30 (100%), 29/30 (97%), 3%, not significant
tumour outcome (control, treated, inhibition, significance) (Carcinogen: N-(4-(5-NITRO-2-FURYL)-2-THIAZOLYL)FORMAMIDE, 24554-26-5, Dose [Inhibitor]: 250 MG/100 CC DRINKING WATER STARTING SIMULTANEOUSLY WITH CARCINOGEN TREATMENT AND CONTINUING FOR DURATION OF STUDY (STU, Route [Inhibitor]: ORAL, Species: MOUSE, Strain/Sex: C3H/FEMALE, Target Tissue: Type of Lesion: URINARY BLADDER: TRANSITIONAL CELL CARCINOMA, Dose [Carcinogen]: 0.1% IN DIET FOR DURATION OF STUDY, Promoter: NONE USED): 41/41 (100%), 12/13 (92%), 8%, p<0.7
